Test results as given in BindingDB's records for doi:10.1016/S0960-894X(00)80170-5 (1992).

Assays:
[1] = target: T1, 5-hydroxytryptamine receptor 3A/3B (Mus musculus, UniProt P23979+Q9JHJ5); assay: Compound was evaluated for binding to 5-hydroxytryptamine 3 receptor in N1E cells using [3H]- -Tropisetron as radioligand
T1 sequence (P23979 whole entry): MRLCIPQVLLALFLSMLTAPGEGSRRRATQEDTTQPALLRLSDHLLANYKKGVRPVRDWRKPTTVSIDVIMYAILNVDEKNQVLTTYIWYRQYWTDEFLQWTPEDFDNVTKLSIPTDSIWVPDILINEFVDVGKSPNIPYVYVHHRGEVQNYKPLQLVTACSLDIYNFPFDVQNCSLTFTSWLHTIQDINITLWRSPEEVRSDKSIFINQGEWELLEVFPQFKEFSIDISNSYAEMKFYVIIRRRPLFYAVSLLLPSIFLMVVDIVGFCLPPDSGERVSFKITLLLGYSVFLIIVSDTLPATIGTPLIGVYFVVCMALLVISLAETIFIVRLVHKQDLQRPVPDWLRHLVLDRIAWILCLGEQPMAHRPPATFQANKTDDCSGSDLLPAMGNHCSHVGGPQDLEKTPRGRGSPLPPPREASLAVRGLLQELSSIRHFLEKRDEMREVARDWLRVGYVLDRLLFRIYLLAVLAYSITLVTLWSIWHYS
T1 sequence (Q9JHJ5 whole entry): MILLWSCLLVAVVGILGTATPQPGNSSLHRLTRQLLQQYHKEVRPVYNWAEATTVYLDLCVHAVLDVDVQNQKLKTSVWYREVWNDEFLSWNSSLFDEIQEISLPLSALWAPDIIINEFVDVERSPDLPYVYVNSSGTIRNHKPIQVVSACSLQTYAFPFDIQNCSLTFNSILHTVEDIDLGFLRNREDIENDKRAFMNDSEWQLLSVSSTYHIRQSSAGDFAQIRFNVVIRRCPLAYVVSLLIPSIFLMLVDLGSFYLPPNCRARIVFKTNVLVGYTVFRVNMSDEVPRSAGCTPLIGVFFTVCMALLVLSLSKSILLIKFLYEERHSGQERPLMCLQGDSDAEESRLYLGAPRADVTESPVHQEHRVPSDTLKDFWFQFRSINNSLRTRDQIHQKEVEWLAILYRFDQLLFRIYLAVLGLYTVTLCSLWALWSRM

[2] = target: T1, 5-hydroxytryptamine receptor 3A/3B; assay: Compound was evaluated for binding to Serotonin 5-hydroxytryptamine 3 receptor in N1E cells using [3H]- -Tropisetron as radioligand

Kd [1]	SMILES	Kd [2]
20 nM	Cc1nccn1CC1CCc2c(c3ccccc3n2C)C1=O (stereo not drawn) [NSC_68647]	–
–	CN1[C@@H]2CC[C@H]1C[C@@H](OC(=O)c1c[nH]c3ccccc13)C2 [(3-ENDO)-8-METHYL-8-AZABICYCLO[3.2.1]OCT-3-YL 1H-INDOLE-3-CARBOXYLATE]	0.794 nM
–	CN1C2CC(OC(=O)c3c[nH]c4ccccc34)CC1C1OC12 (stereo not drawn)	0.631 nM
